Test results: publication PMC10331583, “Control of fibrosis with enhanced safety via asymmetric inhibition of prolyl‐tRNA synthetase 1” (EMBO Molecular Medicine, 2023)
Values joined by “and” are separate entries in the source; they are usually repeats but may differ in a detail not shown here. Equal values may be shown once.

Experiments:
[1] = Pharmacokinetic study (plasma, LC-MS/MS); assay type: in vivo, C57BL/6 male mice; details: 3, 10 and 30 mg/kg, single dose, intravenous and oral
Procedure: All experiments were performed according to the guidelines on the Institutional Animal Care and Use Committee of QuBEST BIO (QBIACUC‐A21112). Seven‐week‐old C57BL/6 male mice were purchased from Samtako (Osan, South Korea) and fed with regular chow and water ad libitum for 1 week before the experiments. Nine C57BL/6 mice in each group received three single ascending doses (3, 10, and 30 mg/kg) of DWN12088 formulated in normal saline intravenously and orally in fasted conditions. Post‐dosing serial blood samples were obtained using eye bleeding into heparinized capillary tubes with composite sampling (three mice per time point) at predetermined time points. The plasma was separated from the whole blood by centrifugation at 15,000 g for 2 min at 4°C, and then the proteins were precipitated using acetonitrile containing a deuterated‐labeled DWN12088 as an internal standard (IS).
The amount of DWN12088 in mouse plasma was measured by the AB Sciex ExionLC HPLC system connected to an AB Sciex 6500+ Qtrap mass spectrometer equipped with an electrospray ionization (ESI) source (AB Sciex LLC, Framingham, MA, USA). […] The gradient elution program was set as follows: 0–1 min, 10% B; 1.0–1.5 min, 10–95% B; 1.5–3.6 min, 95% B; 4.0–6.0 min, 10% B. Multiple reaction monitoring (MRM) was selected for the quantification of DWN12088 and IS in positive ion mode. […]

[2] = CellTiter‐Glo assay, screen of HF derivatives; assay type: cell-based; details: human, NHLF cells
Procedure: After 24 h, the cells were incubated with various concentrations of compounds for 48 h. The level of ATP as a measure of cell viability was determined using a CellTiter‐Glo® luminescent cell viability assay kit (Promega, G7571) following the manufacturer's instructions.

[3] = Cytotoxicity assay in cells stably expressing EV; details: human; for activity at 72 h, 100 µM: 100000 nM; for activity at 72 h, 300 µM: 300000 nM
[4] = test system: WI‐26 VA4 cells stably expressing EV (empty vector); assay: Cytotoxicity assay in cells stably expressing EV; details: WI-26 VA4 EV
C57BL/6 mice = assay: Bleomycin‐induced lung fibrosis, preventive model; assay type: in vivo; details: 10 mg/kg once a day, 3 weeks
Procedure: In a preventive model of bleomycin‐induced lung fibrosis, all experiments were conducted following the international guidelines on the ethical use of experimental animals and approved by the Institutional Animal Care and Use Committee of Aragen Bioscience (17‐0331‐M‐1). C57BL/6 mice (6–7‐week‐old, male, obtained from Simonsen Laboratories) were randomized into groups (n = 10 for each group) such that mean body weights were similar for the different groups. Oral administration of the compounds (vehicle, DWN12088, and pirfenidone) was started a day before oropharyngeal administration of 70 μl bleomycin (2 units/kg). DWN12088 (3, 10, 30 mg/kg) was treated once a day while 100 mg/kg pirfenidone was treated twice a day (200 mg/kg/day) for 3 weeks, and then the outcome was analyzed.

[5] = Cytotoxicity, % of control (single replicates, Experiment #1-#4), WI-26 VA4 EV
[6] = Cytotoxicity, % of control, average, WI-26 VA4 EV

In the case of O[C@H]1CCCN[C@@H]1CCCn1cnc2c(Cl)c(Cl)ccc21 [DWN12088], the plasma concentrations [1] is reported as “higher at 30 mg/kg”, the CC50 at 48 h [2] is reported as > 100 µM and the CC50 at 72 h [3] is reported as 24 µM. It also gave an IC50 at 72 h [3] of 24 µM, an activity at 72 h, 100 µM [3, 5] of 29.1% and an activity at 72 h, 300 µM [3, 5] of 2.25%. The activity at 72 h, 0.01 µM ([3]; Cytotoxicity, % of control, average, WI-26 VA4 EV, 10 nM) was 131%, the activity at 72 h, 0.03 µM ([3]; Cytotoxicity, % of control, average, WI-26 VA4 EV, 30 nM) was 120% and the activity at 72 h, 0.1 µM ([3]; Cytotoxicity, % of control, average, WI-26 VA4 EV, 100 nM) was 127%. The activity at 72 h, 0.3 µM ([3]; Cytotoxicity, % of control, average, WI-26 VA4 EV, 300 nM) was 125%, the activity at 72 h, 1 µM ([3]; Cytotoxicity, % of control, average, WI-26 VA4 EV, 1000 nM) was 118% and the activity at 72 h, 3 µM ([3]; Cytotoxicity, % of control, average, WI-26 VA4 EV, 3000 nM) was 105%. For the same compound, the activity at 72 h, 10 µM ([3]; Cytotoxicity, % of control, average, WI-26 VA4 EV, 10000 nM) was 108%, the activity at 72 h, 30 µM ([3]; Cytotoxicity, % of control, average, WI-26 VA4 EV, 30000 nM) was 42.2% and the activity at 72 h, 100 µM [3, 6] was 25.1%. The activity at 72 h, 300 µM [3, 6] was 1.78%, the activity at 72 h, 1000 µM ([3]; Cytotoxicity, % of control, average, WI-26 VA4 EV, 1000000 nM) was -0.23% and the “Cytotoxicity, % of control (single replicates, Experiment #1-#4)” value (shortened to “Cytotoxicity, % of control”) ([4]; 10 nM, 0.01 µM) was 181.59 % of control and 174.53 % of control and 155.63 % of control and 131.53 % of control and 90.90 % of control and 98.37 % of control and 100.27 % of control and 114.43 % of control. For the same compound, the “Cytotoxicity, % of control” value ([4]; 30 nM, 0.03 µM) was 144.67 % of control and 129.26 % of control and 139.92 % of control and 145.06 % of control and 96.12 % of control and 96.09 % of control and 105.17 % of control and 102.77 % of control, the “Cytotoxicity, % of control” value ([4]; 100 nM, 0.1 µM) was 147.51 % of control and 118.70 % of control and 139.92 % of control and 137.75 % of control and 115.49 % of control and 112.19 % of control and 121.53 % of control and 122.89 % of control and the “Cytotoxicity, % of control” value ([4]; 300 nM, 0.3 µM) was 145.14 % of control and 129.72 % of control and 157.05 % of control and 115.90 % of control and 103.62 % of control and 109.27 % of control and 123.14 % of control and 114.81 % of control. The “Cytotoxicity, % of control” value ([4]; 1000 nM, 1 µM) was 147.27 % of control and 102.27 % of control and 132.28 % of control and 145.77 % of control and 98.60 % of control and 107.79 % of control and 107.19 % of control and 105.61 % of control, the “Cytotoxicity, % of control” value ([4]; 3000 nM, 3 µM) was 108.37 % of control and 94.06 % of control and 109.81 % of control and 125.38 % of control and 98.33 % of control and 90.23 % of control and 106.43 % of control and 103.83 % of control and the “Cytotoxicity, % of control” value ([4]; 10000 nM, 10 µM) was 112.55 % of control and 107.77 % of control and 118.32 % of control and 138.37 % of control and 93.86 % of control and 92.69 % of control and 99.78 % of control and 101.69 % of control. The “Cytotoxicity, % of control” value ([4]; 30000 nM, 30 µM) was 48.06 % of control and 41.00 % of control and 64.15 % of control and 50.51 % of control and 27.36 % of control and 27.48 % of control and 37.20 % of control and 42.21 % of control, the “Cytotoxicity, % of control” value ([4]; 100000 nM, 100 µM) was 28.49 % of control and 29.03 % of control and 30.62 % of control and 22.10 % of control and 18.35 % of control and 21.38 % of control and 22.01 % of control and the “Cytotoxicity, % of control” value ([4]; 300000 nM, 300 µM) was 1.70 % of control and 1.82 % of control and 1.26 % of control and 1.75 % of control and 1.60 % of control and 1.89 % of control and 2.00 % of control. For the same compound, the “Cytotoxicity, % of control” value ([4]; 1000000 nM, 1000 µM) was 0.17 % of control and -0.17 % of control and 0.30 % of control and -0.30 % of control (2×) and -0.44 % of control (2×) and -0.63 % of control, the “Cytotoxicity HillSlope (best-fit value)” value ([4]; log(inhibitor) vs. response, variable slope (four parameters)) was -1.361 and the “Cytotoxicity LogIC50 (best-fit value)” value ([4]; log(inhibitor) vs. response, variable slope (four parameters), concentration in nM) was 4.38. For the same compound, the “fibrotic properties (modified Ashcroft score, lung weight, collagen content in BALF)” value (C57BL/6 mice) was “alleviated fibrotic properties”.
